We go through one compound from patent US11285136B2, “Nanoparticles for controlled release of Sorafenib and Sorafenib derivatives” (DISTRETTO TECNOLOGICO SICILIA MICRO NANO SISTEMI S.C.A.R.L., priority 2017, dated 2022).

“Also recorded” adds a separate entry of the source.

One series concerns HepG2. Put plainly: Cell viability assay (CellTiter) on HepG2 cells. Format: cell-based, human. Here is the method: (§1) The human hepatocellular carcinoma cell lines, HepG2 and Hep3B, were obtained from the American Type Culture Collection (ATCC). Cells were kept in 5% CO2 and grown in Roswell Park Memorial Institute (RPMI) medium (SIGMA, Milan, Italy), supplemented with 10% (v/v) fetal bovine serum (FBS) (Gibco, Life Technologies, Monza MB, Italy), 2 mM L-glutamine, 100 U/ml of penicillin-streptomycin and 1 mM of sodium pyruvate (SIGMA, Milan, Italy). Cell lines were regularly checked for possible mycoplasma contamination.
(§2) The latter were resuspended in sterile conditions in sterile H2O, sonicated for 20 min in a water sonicator, and diluted with a complete RPMI volume (2×). At the end of the treatment, cell viability assays were performed using the OneSolution aqueous CellTiter kit (Promega Corporation, Madison, Wis., USA). The percentage of cell viability was calculated with reference to the absorbance measured in the control cells. The experiments were performed in triplicate and the values expressed as mean±SD of three independent experiments.

The subject of the next series is Hep3B. Briefly: Cell viability assay (CellTiter) on Hep3B cells. Format: cell-based, human. As to conditions: 72 hours. The method, then: as §1, §2
Series [1] can be described thus: In vitro release of Sorafenib, dialysis tube method. To be noted: SGF, SIF and PBS, 37° C. The class given is physicochemical. Here is the method: During the experiment, the temperature was maintained at 37° C. in a thermostatic stirrer and with stirring of 100 rpm. At scheduled time intervals, 1 ml aliquots were taken from the external medium and replaced with an equal volume of fresh receiving medium. The released Sorafenib was quantified by HPLC analysis. Each in vitro release experiment was repeated in triplicate.
A control experiment was also carried out to determine the dissolution of the free drug: an appropriate amount of Sorafenib was dispersed in the receiving medium, in order to have a final concentration of Sorafenib equal to that present in the nanoparticles, the dispersion was then introduced into a dialysis tube (cut-off 12000-14000 Da) which was immersed in a container containing the receiving medium. The amount of Sorafenib in the receiving medium was detected by HPLC analysis.
The amount of released Sorafenib was expressed as a percentage ratio between the released drug weight and the total amount of Sorafenib loaded into the nanoparticles. […] The cumulative release of Sorafenib in 24 hours was about 63% in SIF (panel B) and about 55% in PBS (panel C).

In series [2] the test system is Hep3B hepatocellular carcinoma. Put plainly: Hep3B xenograft in nude mice, therapeutic efficacy. Format: in vivo. As to conditions: 10 mg/kg daily (6 days/week), 17 days, FIG. 5A. The method, then: (§3) Male nude mice (fox1 nu/nu) of 4 weeks of life were purchased at Envigo (Udine, Italy) and left to acclimatize for 1 week. Hep3B cells (10×10^6 in 0.2 ml PBS), undergoing logarithmic growth, were inoculated in the right flank of the animals. When the tumors were palpable (about 300 mm^3), the mice were randomly divided into four groups of five animals each, with the various tumor volumes equally distributed between the four groups. Each group was treated for 17 days as indicated below.
Group 1: daily treatment (6 days/week) by intraperitoneal (IP) injection with 10 mg/kg of Sorafenib tosylate resuspended in DMSO and further diluted in a 25% solution of ethanol (DMSO-EtOH).
Group 2: carrier only (DMSO-EtOH).
Group 4: daily treatment (6 days/week) with 10 mg/kg of empty PBB nanoparticles resuspended in RPMI.
To quantify the Ki-67 cell proliferation marker expression, the ImmunoRatio® software (http://jvsmicroscope.uta.fi/immunoratio/) was used which, using a color deconvolution algorithm, calculates the percentage of positively marked area (area stained with diaminobenzidine) towards the total nuclear area. The hematoxylin stains were also acquired to analyze the neo-vascularization of the tumor, using the Leica DMR microscope equipped with a Leica DFC 320 digital camera.

Series [3] is described as follows: Body weight and mobility of treated xenograft mice. As to conditions: 10 mg/kg daily (6 days/week), 17 days, FIG. 5B. Format: in vivo, nude mice. Here is the method: as §3
The conditions of series [4]: cited from earlier work.
For series [5] the following is noted: oral tablets, strong first-pass effect; cited from earlier work.
Series [6] is described as follows: Biodistribution of Sorafenib in tissues of treated mice. To be noted: compared with Sorafenib PBB, p<0.01, FIG. 6.
Description: The lyophilized nanoparticle samples were resuspended and sonicated as reported in cell viability assays. Tumor volumes and body weight were recorded twice a week as previously described (Cusimano et al., Cytotoxic activity of the novel small molecule AKT inhibitor SC66 in hepatocellular carcinoma cells. Oncotarget 2015, 6, 1707-1722). The mice were sacrificed by cervical dislocation when the tumor mass exceeded 10% of the body weight of the animals, or when the tumor mass appeared ulcerated or other morbid conditions were found, in accordance with the institutional guidelines and in accordance with the national law (Legislative Decree No. 26 4-3-2014) and international laws and policies (ECC Council Directive 86/609, OJ L358.1, Dec. 12, 1987). […] At the end of the trial, tumors, liver, kidneys, lungs and spleen were collected from each animal. Half of each tumor, or organ, was frozen in liquid nitrogen and stored at −80° C. for biodistribution analyzes, while the other half was fixated in formalin and used for immunohistochemistry analysis.
Sorafenib was extracted from the tissues of the treated animals following the procedure described in Craparo E F et al. Galactosylated polymeric carriers for liver targeting of Sorafenib. […]

As a reminder, the IC50 is the concentration that gives 50% inhibition. Low values mean greater potency in that assay, high ones weaker potency in that assay. Turning to `CNC(=O)c1cc(Oc2ccc(NC(=O)Nc3ccc(Cl)c(C(F)(F)F)c3)cc2)ccn1` [Sorafenib, 4-[4-[[4-chloro-3-(trifluoromethyl)phenyl]carbamoylamino]phenoxy]-N-methyl-pyridine-2-carboxamide], the cell viability entry with HepG2 (HepG2, 0.6-10 μM, 72 hours, FIG. 3) is listed as “strongly decreased in a dose-dependent manner”; with Hep3B (0.6-10 μM, FIG. 3), “strongly decreased in a dose-dependent manner”. For the same compound, the IC50 amounted to 5.5 ± 1 µM with HepG2 (Homo sapiens, HepG2, 72 hours, mean ± DS) and 3.5 ± 0.5 µM with Hep3B (Homo sapiens, mean ± DS). Also, the “dissolution of free drug” value in series [1] was “almost complete within two hours”. Moreover, the tumor growth result in series [2] is on record as “reduced tumor growth compared to the carrier alone, although this difference was not significant”. Besides, the body weight result in series [3] is “did not show a significant loss of body weight”. Further, the solubility in water result in series [4] was “slightly soluble; also recorded: poorly soluble”. The bioavailability result in series [5] was “low”. In addition, in series [6], the “amount of Sorafenib detected in the lungs” value was “significantly higher”.
